{"source": "patent US20250020667A1", "about": "“DEVELOPMENT OF MICROBIAL BIOSENSORS FOR INTESTINAL INFLAMMATION” (Baylor College of Medicine, priority 2017, published 2025)", "molecules": {"B1": {"name": "calprotectin: neutrophil-source antimicrobial peptide heterodimer that sequesters zinc, manganese and iron; recombinant human, supplied by Dr. Walter Chazin (protein, UniProt P05109 1-93; P06702 1-114, looked up)", "Protein S100-A8": "MLTELEKALNSIIDVYHKYSLIKGNFHAVYRDDLKKLLETECPQYIRKKGADVWFKELDINTDGAVNFQEFLILVIKMGVAAHKKSHEESHKE", "Protein S100-A9": "MTCKMSQLERNIETIINTFHQYSVKLGHPDTLNQGEFKELVRKDLQNFLKKENKNEKVIEHIMEDLDTNADKQLSFEEFIMLMARLTWASHEKMHEGDEGPGHHHKPGLGEGTP"}}, "key": {"[1]": {"test_system": "E. coli Nissle L36/L31 ribosomal accessory protein promoter (ykgMO) GFP biosensor", "assay": "Induction of promoter-GFP biosensor, GFP by flow cytometry", "type": "cell-based, Escherichia coli", "excerpt": "(§1) Initial Data. […] Sequences were obtained via Illumina NextSeq and mapped against E. coli Nissle 1917 reference genome.\n(§2) Initial test constructs consisted of the intergenic promoter regions for the following genes: E. coli Nissle—sulA, entCE (enterobactin synthase operon), ykgMO (paralog for L36/L31 ribosomal accessory protein), ABC Transporter (WP_000977398.1); L. reuteri—ABC Transporter operon (EGC15836.1), Acyl carrier protein dehydratase (EGC15031.1), argininosuccinate lyase (EGC15288.1). Each promoter region was cloned directly upstream of a green fluorescent protein cassette. For L. reuteri, the eGFP cassette was used while the sGFP cassette was used for E. coli. All constructs were assembled via the Gibson Reaction (NEBiosciences)."}, "[2]": {"test_system": "E. coli Nissle enterobactin synthase promoter GFP biosensor", "assay": "Induction of promoter-GFP biosensor, GFP by flow cytometry", "type": "cell-based, Escherichia coli", "excerpt": "as §1, §2"}, "[3]": {"test_system": "L. reuteri acyl carrier protein dehydratase promoter GFP biosensor", "assay": "Induction of promoter-GFP biosensor, GFP by flow cytometry", "type": "cell-based, Lactobacillus reuteri", "details": "co-cultured with TPEN vs uninduced sensor", "experimental": "All constructs were assembled via the Gibson Reaction (NEBiosciences).\nAll flow runs were performed in 96 well plates.\nTPEN Induction—TPEN, a synthetic zinc chelator, induction assays were performed as calprotectin induction, with TPEN replacing calprotectin. Growth condition were also identical. Media ratios differed. In the TPEN studies, 180 uL of media was used with 20 uL cells and 2 uL of TPEN in absolute ethanol."}, "[4]": {"test_system": "L. reuteri ABC transporter promoter GFP biosensor", "assay": "Metal complementation assay (metal added to sensors co-cultured with calprotectin)", "type": "cell-based, Lactobacillus reuteri", "description": "Metal complementation assays—Mixes were similar to the calprotectin induction assays with the addition of zinc (II) sulfate, manganese (II) sulfate, or iron (II) chloride. Concentrations of metals were added in excess of 1×, 10×, and 100× the binding capacity of 40 ug/mL (1.4 uM) calprotectin. In total, 0, 4 uM, 40 uM, and 400 uM of zinc and iron were added and 0, 2 uM, 20 uM, and 200 uM of manganese was added. Slightly higher than equimolar amounts were added to correct for possible pipetting error. Cells were grown for the same amount of time as in the calprotectin induction assays.\nFlow cytometry—˜10-40 uL of cells were added to 1 mL of PBS sheath fluid and run through the flow cytometer for a total of 10000 events. Cells were thresholded by forward/side scatter, and.fsc files were analyzed with the FlowCal software, developed by the Jeff Tabor Lab. In short, FlowCal identifies the densest region of cells on the associated scatterplot, and analyzes the fluorescent output of 30% of the cells in this region so as to evaluate a homogenous dataset and remove possible outliers. […] In this case, GFP output is reported as molecules of equivalent fluorophores (MEF), and was evaluated on the FL1 channel."}, "[5]": {"test_system": "E. coli Nissle L36/L31 ribosomal accessory protein promoter GFP biosensor", "details": "sensors co-cultured with calprotectin"}, "[6]": {"test_system": "L. reuteri acyl carrier protein dehydratase promoter GFP biosensor", "details": "co-cultured with 40 ug/mL calprotectin"}, "[7]": {"test_system": "E. coli Nissle enterobactin synthase promoter GFP biosensor"}, "[8]": {"test_system": "Lactobacillus reuteri ABC transporter promoter GFP sensor", "details": "40 ug/mL calprotectin vs uninduced sensor", "excerpt": "as §2"}, "[9]": {"test_system": "Lactobacillus reuteri PTA 6475", "assay": "Minimum inhibitory concentration (MIC) assay, overnight growth, OD600", "type": "cell-based", "details": "L. reuteri", "experimental": "(§3) Minimum inhibitory concentration (MIC) assay—Escherichia coli Nissle 1917 and Lactobacillus reuteri PTA 6475 were used as vectors for biosensor construction. For both strains, bacteria was grown overnight in media (MRS broth for L. reuteri; LB broth for E. coli). From the overnight culture, 10^4 bacterial cells in 38 uL media (LDM4 for L. reuteri; LB broth for E. coli) were seeded into a 96 well-plate. 62 uL of calprotectin in buffer (20 mM Tris (pH 7.5), 100 mM NaCl, 10 mM beta-mercaptoethanol, 3 mM CaCl2) was added in 2-fold dilutions. Recombinant human calprotectin was supplied by Dr. Walter Chazin of Vanderbilt University. Bacteria was allowed to grow overnight, and OD600 values were taken the following morning.\n(§4) RNA Isolation—Sub-inhibitory concentrations of calprotectin were used for the calprotectin induction. […] Cells were grown overnight, and then back-diluted 1:100 into 5 mL of media (LDM4 for L. reuteri; LB Broth for E. coli). Cells were grown up to log phase, and then the sub-inhibitory amount of calprotectin was added to the tube in calprotectin buffer. Growth continued for 30 total minutes in the presence of the calprotectin, and then transcription was frozen by addition of ice cold methanol for L. reuteri and ice-cold ethanol for E. coli Nissle. Cells were collected via centrifugation, and then RNA was isolated using the QIAgen RNEasy kit. Slight modifications were included. For L. reuteri, mechanical cell-wall disruption was used via bead-beating. For E. coli, lysozyme/proteinase K was used to disrupt the gram-negative cell wall. RNA was quantified and tested for purity using a Nanodrop.\n(§5) Both prospective vector strains (Lactobacillus reuteri and Escherichia coli Nissle) were grown overnight in the presence of 2-fold dilutions of calprotectin in order to deduce minimum inhibitory concentrations of calprotectin on the microbes."}, "[10]": {"test_system": "Escherichia coli Nissle 1917", "assay": "Minimum inhibitory concentration (MIC) assay, overnight growth, OD600", "type": "cell-based", "details": "E. coli Nissle", "experimental": "as §3, §4, §5"}, "[11]": {"details": "co-cultured with 1.5 uM TPEN vs media only"}, "[12]": {"details": "co-cultured with 40 ug/mL calprotectin"}, "[13]": {"details": "overnight growth, 2-fold dilutions"}, "[14]": {"details": "40 ug/mL calprotectin vs un-induced"}}, "note": "Structures can show the parent of a compound that is named as a salt."}
{"molecule": "c1ccc(CN(CCN(Cc2ccccn2)Cc2ccccn2)Cc2ccccn2)nc1", "note": "[TPEN, N,N,N′,N′-tetrakis(2-pyridinylmethyl)-1,2-ethanediamine]", "values": [{"measurement": "fold increase in GFP expression", "setting": "[1]; [11]", "result": 4.5, "unit": "fold"}, {"measurement": "fold increase in GFP expression", "setting": "[2]; [11]", "result": 5.6, "unit": "fold"}, {"measurement": "fold increase in GFP expression", "setting": "[3]", "result": 2.5, "unit": "fold"}]}
{"molecule": "[Cl][Fe][Cl]", "note": "[iron, iron (II) chloride]", "values": [{"measurement": "iron excess required to turn off promoter activity", "setting": "[4]; × the binding capacity of 40 ug/mL calprotectin, possibly a cell survival issue", "result": 100, "unit": "×"}]}
{"molecule": "O=S(=O)([O-])[O-].[Mn+2]", "note": "[manganese, manganese (II) sulfate]", "values": [{"measurement": "effect of added manganese on sensor activity", "setting": "[4]; manganese at 100× binding capacity of 40 ug/mL calprotectin", "result": "did not fully ablate sensor activity"}]}
{"molecule": "[Zn+2]", "note": "[zinc, zinc (II) sulfate]", "values": [{"measurement": "effect of added zinc on calprotectin-induced increase in GFP expression", "setting": "[5]", "result": "abolishes the calprotectin-induced increase in GFP expression"}, {"measurement": "zinc concentration sufficient to totally abolish promoter activity", "setting": "[6]", "result": 4, "unit": "µM"}, {"measurement": "zinc concentration sufficient to totally abolish promoter activity", "setting": "[4]; [12]", "result": 4, "unit": "µM"}, {"measurement": "zinc concentration sufficient to totally abolish promoter activity", "setting": "[7]; [12]", "result": 4, "unit": "µM"}, {"measurement": "effect of added zinc on calprotectin-induced increase in GFP expression", "setting": "[7]; sensors co-cultured with calprotectin", "result": "abolishes the calprotectin-induced increase in GFP expression"}]}
{"molecule": "B1", "values": [{"measurement": "fold increase in GFP expression", "setting": "[8]", "result": 4.93, "unit": "fold"}, {"measurement": "highest concentration that did not inhibit overnight growth (sub-inhibitory concentration)", "setting": "[9]", "result": 15.625, "unit": "µg/mL"}, {"measurement": "minimum inhibitory concentration (growth inhibited at this concentration and above)", "setting": "[9]; [13]", "result": 31.25, "unit": "µg/mL"}, {"measurement": "highest concentration that did not inhibit overnight growth (sub-inhibitory concentration)", "setting": "[10]", "result": 125, "unit": "µg/mL"}, {"measurement": "minimum inhibitory concentration (growth inhibited at this concentration and above)", "setting": "[10]; [13]", "result": 250, "unit": "µg/mL"}, {"measurement": "fold increase in GFP expression", "setting": "[1]; [14]", "result": 2.6, "unit": "fold"}, {"measurement": "fold increase in GFP expression", "setting": "[2]; [14]", "result": 1.8, "unit": "fold"}]}
